Results on one compound are retold here after paper PMC3726224 (Developmental cell, 2013).

Common to all, as to assay type: biochemical
One experiment concerns the target T1, Erv1 (Saccharomyces cerevisiae, UniProt P27882).
T1 sequence (P27882 1-189): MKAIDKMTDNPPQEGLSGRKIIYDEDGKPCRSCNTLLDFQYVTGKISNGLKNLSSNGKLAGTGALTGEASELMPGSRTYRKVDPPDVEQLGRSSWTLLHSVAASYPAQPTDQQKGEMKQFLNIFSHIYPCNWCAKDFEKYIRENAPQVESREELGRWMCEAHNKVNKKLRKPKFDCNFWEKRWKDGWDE
The experiment can be described thus: Amplex Red-HRP sulfhydryl oxidase assay with recombinant Erv1.

The target in a further experiment is ALR (Homo sapiens, UniProt P55789). The experiment can be described thus: Amplex Red-HRP sulfhydryl oxidase assay.
Sequence of ALR (P55789 whole entry): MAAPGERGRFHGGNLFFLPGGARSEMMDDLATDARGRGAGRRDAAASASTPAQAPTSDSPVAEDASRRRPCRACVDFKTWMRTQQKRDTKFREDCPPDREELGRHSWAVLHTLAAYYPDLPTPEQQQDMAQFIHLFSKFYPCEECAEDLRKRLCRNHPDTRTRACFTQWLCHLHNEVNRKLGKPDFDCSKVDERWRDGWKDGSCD
A further experiment deals with T2, Erv2 (Saccharomyces cerevisiae, UniProt Q12284).
T2 sequence (Q12284 1-196): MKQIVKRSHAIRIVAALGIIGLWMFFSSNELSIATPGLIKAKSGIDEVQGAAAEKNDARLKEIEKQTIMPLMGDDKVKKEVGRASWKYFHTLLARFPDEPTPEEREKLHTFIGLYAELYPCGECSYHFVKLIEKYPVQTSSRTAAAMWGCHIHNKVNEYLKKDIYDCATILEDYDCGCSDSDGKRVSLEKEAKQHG
The experiment can be described thus: Amplex Red-HRP sulfhydryl oxidase assay.

In general, IC50 refers to the concentration that gives 50% inhibition. As to `Oc1c(Cl)cc(Cl)cc1C=Nc1ccc(Nc2ccccc2)cc1` [MitoBloCK-6], the results for the IC50 at Erv1, at ALR and against Erv2 were 900 nM, 700 nM and 1400 nM, respectively.
